Assays:
Assay type in all cases: functional, organism-based
[1] = system: Escherichia coli; assay: Compound was evaluated for the inhibition of Escherichia coli TEM-1 enzyme
[2] = system: Enterobacter cloacae; assay: Compound was evaluated for the inhibition of Enterobacter cloacae P99 cephalosporinase
[3] = system: Staphylococcus aureus; assay: Compound was evaluated for the inhibition of Staphylococcus aureus penicillinase (PC1)

SMILES | IC50 [1] | IC50 [2] | IC50 [3]
CC1(C)[C@H](C(=O)O)N2C(=O)C[C@H]2S1(=O)=O [SULBACTAM] | 1900 nM | 20 µM | 6.8 µM
C[C@@]12C[C@]1(C(=O)O)N1C(=O)C[C@H]1S2(=O)=O | 406000 nM | 12 µM | 548 µM
C[C@]12C[C@@]1(C(=O)O)N1C(=O)C[C@H]1S2(=O)=O | 2500 nM | 322 µM | 14 µM
